# Experimental data taken from patent US20220347266A1, “METHOD AND MEDICINE FOR TREATING DEPRESSIVE DISORDERS” (QINGDAO PRIMEDICINE PHARMACEUTICAL CO., LTD., priority 2018, published 2022).
# Where no end group is shown, it is not given here.
# Tests used:
# [1] = test system: C57 mice; assay: Forced swim test (FST) of mice, behavioral despair model of depressive disorder; format: in vivo, mouse; settings: for immobility time of forced swimming mice: vs vehicle, FIG. 1
# From the text: Among the behavioral despair models, forced swim test of mice/rats is the most common animal model of depressive disorder to evaluate the effect of antidepressants. In this model, animals are forced to swim in water in a limited space. After struggling for many times but failing to escape, the animals may stop swimming and begin floating without struggling to escape anymore. This immobility is considered as the manifestation of behavioral despair and depression. This model has good predictive validity for antidepressants.
# By using ketamine metabolite HNK as a positive control medication, the effect of compound PMS-001 on depression-like behavior of C57 mice was investigated through forced swim test 1 hour and 24 hours after single medicinal intervention. […]; (SEQ ID NO: 3). Wherein the amino acid sequence YGRKKRRQRRR (SEQ ID NO: 2), also known as Tat peptide, is a carrier peptide, and can assist the polypeptide in penetration of the blood-brain barrier. […] However, it is unknown in the art whether a C-terminal polypeptide of GluR2 such as YKEGYNVYG (SEQ ID NO: 1) can be used in the treatment of depressive disorder, specifically major depressive disorder.
# The experimental animals were 6-week-old male C57 mice obtained from Shanghai SLAC Laboratory Animal Co., Ltd, with body weight of […]. They were transported to the Animal Breeding Center of Shanghai Institute of Materia Medica, Chinese Academy of Sciences (Animal production license: SCXK9 [Shanghai] 2004-0002, use license: SYXK [Shanghai] 2003-0029), and allowed to acclimatize in animal facilities for more than 3 days, with 6 individuals per cage. Mice were housed at room temperature (23±0.2° C.), with a 12 h/12 h light/dark cycle. Before the behavioral test, animals were moved to the behavior testing room 2 hours in advance for acclimation to relieve tension. […]
# 24 hours before administration, each mouse was placed into a cylinder tank for acclimation in the water environment for 10 min. […] Mice were videotaped for 6 minutes since being placed into water, and the immobility time for the last 4 minutes was calculated due to the fact that most animals were very active in the first two minutes (the criteria for immobility: mice stop struggling, keep immobility and make small movements to balance their bodies or float in water). […]
# All data analyses were performed with spss 22 data processing software. […] Data were expressed as Mean±SEM. *: p<0.05; **: p<0.01; ***: p<0.001.
# [2] = test system: AMPAR; settings: from EP1,687,427B1; cited from earlier work
Sequence,"immobility time of forced swimming mice ([1]; 1 hour after administration, single 10 mg/kg intraperitoneal injection)","immobility time of forced swimming mice ([1]; 24 hours after administration, single 10 mg/kg intraperitoneal injection)",antidepressant effect compared to positive control HNK ([1]; same dose (10 mg/kg i.p.)),onset of antidepressant effect after administration ([1]; single 10 mg/kg intraperitoneal injection) [h],inhibition of NMDA-mediated excessive endocytosis of AMPAR [2]
YGRKKRRQRRRYKEGYNVYG [PMS-001],very significantly decrease,very significantly decrease,better rapid and lasting antidepressant effect,1,
YKEGYNVYG (Artificially synthesized GluR2-3Y peptide),,,,,proved to inhibit
